Assay results taken from US11324749B2, “Combination therapy for treatment of hematological diseases” (Incyte Corporation, priority 2018, dated 2022).

Experiments:
[1] = biological target: human JAK1 (a.a. 837-1142) (Homo sapiens, UniProt P23458); test: In vitro JAK kinase assay (HTRF), JAK1; assay type: biochemical; settings: 1 mM ATP
Method: (§1) The catalytic activity of JAK1, JAK2, or JAK3 was assayed by measuring the phosphorylation of a biotinylated peptide. The phosphorylated peptide was detected by homogenous time resolved fluorescence (HTRF). […] Reactions are carried out at room temperature for 1 hour and then stopped with 20 μL 45 mM EDTA, 300 nM SA-APC, 6 nM Eu-Py20 in assay buffer (Perkin Elmer, Boston, Mass.). Binding to the Europium labeled antibody takes place for 40 minutes and HTRF signal was measured on a Fusion plate reader (Perkin Elmer, Boston, Mass.).

[2] = biological target: human JAK2 (a.a. 828-1132) (Homo sapiens (Human), UniProt O60674); test: In vitro JAK kinase assay (HTRF), JAK2 versus JAK1; assay type: biochemical; settings: IC50 ratio, 1 mM ATP
Sequence of human JAK2 (a.a. 828-1132) (O60674 828-1132): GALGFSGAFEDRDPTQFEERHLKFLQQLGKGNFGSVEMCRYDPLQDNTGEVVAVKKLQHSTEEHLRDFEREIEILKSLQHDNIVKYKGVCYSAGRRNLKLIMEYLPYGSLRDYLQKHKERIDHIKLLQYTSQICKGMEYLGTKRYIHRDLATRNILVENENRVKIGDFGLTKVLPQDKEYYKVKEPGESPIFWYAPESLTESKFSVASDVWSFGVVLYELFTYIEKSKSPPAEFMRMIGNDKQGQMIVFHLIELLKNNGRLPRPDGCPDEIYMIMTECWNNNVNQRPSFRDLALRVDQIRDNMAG
Method: as §1

| IC50 [1] [nM] | JAK2/JAK1 [2] | Structure (SMILES) |
| --- | --- | --- |
| < 10 | >10 | N#CCC(C1CCN(c2cccc(Cl)n2)C1)n1cc(-c2ncnc3[nH]ccc23)cn1 (single isomer, unassigned) [Compound 6, 3-[1-(6-chloropyridin-2-yl)pyrrolidin-3-yl]-3-[4-(7H-pyrrolo[2,3-d]pyrimidin-4-yl)-1H-pyrazol-1-yl]propanenitrile] |
| < 10 | >10 | N#CCC1(n2cc(-c3ncnc4[nH]ccc34)cn2)CN(C2CCN(C(=O)Nc3ccc(F)cc3C(F)(F)F)CC2)C1 [Compound 2, 4-{3-(Cyanomethyl)-3-[4-(7H-pyrrolo[2,3-d]pyrimidin-4-yl)-1H-pyrazol-1-yl]azetidin-1-yl}-N-[4-fluoro-2-(trifluoromethyl)phenyl] piperidine-1-carboxamide] |
| < 10 | >10 | N#CCC1(n2cc(-c3ncnc4[nH]ccc34)cn2)CN(C2CCN(C(=O)c3ccnc(C(F)(F)F)n3)CC2)C1 [Compound 3, [3-[4-(7H-pyrrolo[2,3-d]pyrimidin-4-yl)-1H-pyrazol-1-yl]-1-(1-{[2-(trifluoromethyl)pyrimidin-4-yl]carbonyl}piperidin-4-yl)azetidin-3-yl]acetonitrile] |
| < 100 | >10 | C[C@@H](O)c1nc2cnc3ccsc3c2n1[C@H]1CC[C@H](CC#N)OC1 [Compound 5, ((2R,5S)-5-{2-[(1R)-1-hydroxyethyl]-1H-imidazo[4,5-d]thieno[3,2-b]pyridin-1-yl}tetrahydro-2H-pyran-2-yl)acetonitrile] |
| < 10 | >10 | N#CCC(C1CCN(c2nc3cccnc3o2)C1)n1cc(-c2ncnc3[nH]ccc23)cn1 (stereo not drawn) [Compound 7, 3-(1-[1,3]oxazolo[5,4-b]pyridin-2-ylpyrrolidin-3-yl)-3-[4-(7H-pyrrolo[2,3-d]pyrimidin-4-yl)-1H-pyrazol-1-yl]propanenitrile] |
| < 10 | >10 | N#CCC(CN1CCN(C(=O)c2ccc(C#N)cc2F)CC1)n1cc(-c2ncnc3[nH]ccc23)cn1 (stereo not drawn) [Compound 8, 4-[(4-{3-cyano-2-[4-(7H-pyrrolo[2,3-d]pyrimidin-4-yl)-1H-pyrazol-1-yl]propyl}piperazin-1-yl)carbonyl]-3-fluorobenzonitrile] |
| < 10 | >10 | N#CCC(CN1CCN(C(=O)c2ccc(C#N)cc2F)CC1)n1ccc(-c2ncnc3[nH]ccc23)c1 (stereo not drawn) [Compound 9, 4-[(4-{3-cyano-2-[3-(7H-pyrrolo[2,3-d]pyrimidin-4-yl)-1H-pyrrol-1-yl]propyl}piperazin-1-yl)carbonyl]-3-fluorobenzonitrile] |
| < 10 | >10 | N#CC[C@]1(n2cc(-c3ncnc4[nH]ccc34)cn2)C[C@H](N2CCN(C(=O)c3ccnc(C(F)(F)F)n3)CC2)C1 [Compound 10, [trans-1-[4-(7H-pyrrolo[2,3-d]pyrimidin-4-yl)-1H-pyrazol-1-yl]-3-(4-{[2-(trifluoromethyl)pyrimidin-4-yl]carbonyl}piperazin-1-yl)cyclobutyl]acetonitrile] |
| < 10 | >10 | N#CC[C@]1(n2cc(-c3ncnc4[nH]ccc34)cn2)C[C@H](N2CCC(Oc3cc(CN4CC(O)C4)cc(C(F)(F)F)n3)CC2)C1 [Compound 11, {trans-3-(4-{[4-[(3-hydroxyazetidin-1-yl)methyl]-6-(trifluoromethyl)pyridin-2-yl]oxy}piperidin-1-yl)-1-[4-(7H-pyrrolo[2,3-d]pyrimidin-4-yl)-1H-pyrazol-1-yl]cyclobutyl}acetonitrile] |
| < 10 | >10 | N#CC[C@]1(n2cc(-c3ncnc4[nH]ccc34)cn2)C[C@H](N2CCC(Oc3cc(CN4CCC[C@H]4CO)cc(C(F)(F)F)n3)CC2)C1 [Compound 12, {trans-3-(4-{[4-{[(2S)-2-(hydroxymethyl)pyrrolidin-1-yl]methyl}-6-(trifluoromethyl)pyridin-2-yl]oxy}piperidin-1-yl)-1-[4-(7H-pyrrolo[2,3-d]pyrimidin-4-yl)-1H-pyrazol-1-yl]cyclobutyl}acetonitrile] |
| < 10 | >10 | N#CC[C@]1(n2cc(-c3ncnc4[nH]ccc34)cn2)C[C@H](N2CCC(Oc3cc(CN4CCC[C@@H]4CO)cc(C(F)(F)F)n3)CC2)C1 [Compound 13, {trans-3-(4-{[4-{[(2R)-2-(hydroxymethyl)pyrrolidin-1-yl]methyl}-6-(trifluoromethyl)pyridin-2-yl]oxy}piperidin-1-yl)-1-[4-(7H-pyrrolo[2,3-d]pyrimidin-4-yl)-1H-pyrazol-1-yl]cyclobutyl}acetonitrile] |
| < 10 | >10 | C[C@H](NC(=O)c1cc(F)c(N2CC(CC#N)(n3cc(-c4ncnc5[nH]ccc45)cn3)C2)cc1F)C(F)(F)F [Compound 16, 4-{3-(cyanomethyl)-3-[4-(7H-pyrrolo[2,3-d]pyrimidin-4-yl)-1H-pyrazol-1-yl]azetidin-1-yl}-2,5-difluoro-N-[(1S)-2,2,2-trifluoro-1-methylethyl]benzamide] |
| < 10 | >10 | N#CCC1(n2cc(-c3ncnc4[nH]ccc34)cn2)CN([C@H]2CC[C@@H](Oc3cc(CCO)nc(C(F)(F)F)n3)CC2)C1 [Compound 18, {1-(cis-4-{[6-(2-hydroxyethyl)-2-(trifluoromethyl)pyrimidin-4-yl]oxy}cyclohexyl)-3-[4-(7H-pyrrolo[2,3-d]pyrimidin-4-yl)-1H-pyrazol-1-yl]azetidin-3-yl}acetonitrile] |
| < 10 | >10 | CCNCc1cc(O[C@H]2CC[C@@H](N3CC(CC#N)(n4cc(-c5ncnc6[nH]ccc56)cn4)C3)CC2)nc(C(F)(F)F)c1 [Compound 19, {1-(cis--4{[4-[(ethylamino)methyl]-6-(trifluoromethyl)pyridin-2-yl]oxy}cyclohexyl)-3-[4-(7H-pyrrolo[2,3-d]pyrimidin-4-yl)-1H-pyrazol-1-yl]azetidin-3-yl}acetonitrile] |
| < 10 | >10 | CC(C)(O)c1cc(O[C@H]2CC[C@@H](N3CC(CC#N)(n4cc(-c5ncnc6[nH]ccc56)cn4)C3)CC2)nc(C(F)(F)F)c1 [Compound 20, {1-(cis-4-{[4-(1-hydroxy-1-methylethyl)-6-(trifluoromethyl)pyridin-2-yl]oxy}cyclohexyl)-3-[4-(7H-pyrrolo[2,3-d]pyrimidin-4-yl)-1H-pyrazol-1-yl]azetidin-3-yl}acetonitrile] |
| < 10 | >10 | N#CCC1(n2cc(-c3ncnc4[nH]ccc34)cn2)CN([C@H]2CC[C@@H](Oc3cc(CN4CC[C@@H](O)C4)cc(C(F)(F)F)n3)CC2)C1 [Compound 21, {1-(cis-4-{[4-{[(3R)-3-hydroxypyrrolidin-1-yl]methyl}-6-(trifluoromethyl)pyridin-2-yl]oxy}cyclohexyl)-3-[4-(7H-pyrrolo[2,3-d]pyrimidin-4-yl)-1H-pyrazol-1-yl]azetidin-3-yl}acetonitrile] |
| < 10 | >10 | N#CCC1(n2cc(-c3ncnc4[nH]ccc34)cn2)CN([C@H]2CC[C@@H](Oc3cc(CN4CC[C@H](O)C4)cc(C(F)(F)F)n3)CC2)C1 [Compound 22, {1-(cis-4-{[4-{[(3S)-3-hydroxypyrrolidin-1-yl]methyl}-6-(trifluoromethyl)pyridin-2-yl]oxy}cyclohexyl)-3-[4-(7H-pyrrolo[2,3-d]pyrimidin-4-yl)-1H-pyrazol-1-yl]azetidin-3-yl}acetonitrile] |
| < 10 | >10 | C[C@@H](CO)NCc1cc(OC2CCN([C@H]3C[C@](CC#N)(n4cc(-c5ncnc6[nH]ccc56)cn4)C3)CC2)nc(C(F)(F)F)c1 [Compound 23, {trans-3-(4-{[4-({[(1S)-2-hydroxy-1-methylethyl]amino}methyl)-6-(trifluoromethyl)pyridin-2-yl]oxy}piperidin-1-yl)-1-[4-(7H-pyrrolo[2,3-d]pyrimidin-4-yl)-1H-pyrazol-1-yl]cyclobutyl}acetonitrile] |
| < 10 | >10 | C[C@@H](O)CNCc1cc(OC2CCN([C@H]3C[C@](CC#N)(n4cc(-c5ncnc6[nH]ccc56)cn4)C3)CC2)nc(C(F)(F)F)c1 [Compound 24, {trans-3-(4-{[4-({[(2R)-2-hydroxypropyl]amino}methyl)-6-(trifluoromethyl)pyridin-2-yl]oxy}piperidin-1-yl)-1-[4-(7H-pyrrolo[2,3-d]pyrimidin-4-yl)-1H-pyrazol-1-yl]cyclobutyl}acetonitrile] |
| < 10 | >10 | C[C@H](O)CNCc1cc(OC2CCN([C@H]3C[C@](CC#N)(n4cc(-c5ncnc6[nH]ccc56)cn4)C3)CC2)nc(C(F)(F)F)c1 [Compound 25, {trans-3-(4-{[4-({[(2S)-2-hydroxypropyl]amino}methyl)-6-(trifluoromethyl)pyridin-2-yl]oxy}piperidin-1-yl)-1-[4-(7H-pyrrolo[2,3-d]pyrimidin-4-yl)-1H-pyrazol-1-yl]cyclobutyl}acetonitrile] |
| < 10 | >10 | N#CC[C@]1(n2cc(-c3ncnc4[nH]ccc34)cn2)C[C@H](N2CCC(Oc3cc(CCO)cc(C(F)(F)F)n3)CC2)C1 [Compound 26, {trans-3-(4-{[4-(2-hydroxyethyl)-6-(trifluoromethyl)pyridin-2-yl]oxy}piperidin-1-yl)-1-[4-(7H-pyrrolo[2,3-d]pyrimidin-4-yl)-1H-pyrazol-1-yl]cyclobutyl}acetonitrile] |
